Data on nine molecules can be found in the supplement of paper PMC11061612.

Molecules are shown by their SMILES.

Assay [1] has as its system EJM (Plasma Cell Myeloma). Nature of the assay: Bliss excess, mean over the matrix (fraction); higher = more synergy. The method in brief: (§1)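 After 24 hours at 37°C and 5% CO2 in 1536-well plates, cells in DMEM/F12 or RPMI plus 10% FBS received two-drug dose matrices for 72 hours. Viability came from CellTiter-Glo 2.0 luminescence and was scaled as inhibition, anchored at 0 by vehicle wells and at 1 by blank wells. Combination Emax is taken as the second-highest inhibition in the matrix, and Bliss excess as the observed combination effect less EA + EB − EA·EB, with EA and EB the single-agent effects.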

Assay [2] has as its system G-401 (Other Solid Carcinomas). The description is as above. The method in brief:
as §1

The subject of assay [3] is HCC1500 (Breast Carcinoma). Described as above. The gist of the method: as §1
The next assay concerns Hey (Ovarian Carcinoma). Described as above. The method in brief:
as §1

The test system of assay [4] is KOPN-8 (B-Lymphoblastic Leukemia). The description is as above. The method in brief: as §1
Assay [5] relates to NCI-H1838 (Lung Adenocarcinoma). The description is as above. The method in brief:
as §1

The subject of assay [6] is CADO-ES1 (Ewing's Sarcoma). In words: combination Emax (second highest fraction inhibited in the dose matrix, 72 h); higher = more inhibition; extreme values may be limits of the assay. The gist of the method: as §1
The subject of assay [7] is EJM (Plasma Cell Myeloma). Described as above. The gist of the method: as §1
The next assay has as its system EW-1 (Ewing's Sarcoma). Described as above. The method in brief:
as §1

Assay [8] has as its system G-401 (Other Solid Carcinomas). The description is as above. The method in brief:
as §1

For assay [9], the system named is HCC1937 (Breast Carcinoma). Described as above. The method in brief: as §1
Assay [10] concerns HCC2998 (Colorectal Carcinoma). The description is as above. The method in brief: as §1
Assay [11] deals with KOPN-8 (B-Lymphoblastic Leukemia). The description is as above. The gist of the method:
as §1

Assay [12] has as its system LC-1-sq (Squamous Cell Lung Carcinoma). Described as above. The gist of the method:
as §1

Assay [13] relates to NCI-H1092 (Small Cell Lung Carcinoma). Described as above. The gist of the method:
as §1

Assay [14] has as its system NCI-H1838 (Lung Adenocarcinoma). The description is as above. The method in brief:
as §1

The test system of assay [15] is NCI-H2122 (Lung Adenocarcinoma). The assay is described as above. The method in brief: as §1
Assay [16] has as its system NCI-H650 (Lung Adenocarcinoma). The description is as above. The gist of the method: as §1
For assay [17], the system named is OACM5-1 (Esophageal Adenocarcinoma). Described as above. The gist of the method: as §1
Assay [18] relates to SK-LU-1 (Lung Adenocarcinoma). The description is as above. The method in brief:
as §1
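Wherever Bliss excess, mean over the matrix is given: after 72 h of two-drug dosing.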

Take `Cc1cc2ncnn2cc1Nc1ncc2c(n1)n(C1CCOCC1)c(=O)n2C` [AZD7648] + CCN(CCO)CCCOc1ccc2c(Nc3cc(CC(=O)Nc4cccc(F)c4)[nH]n3)ncnc2c1 [AZD2811] (first compound max 10 µM, 7x7, partner max 1 µM): the Bliss excess in assay [1] is 0.0417; in assay [2] it was -0.0176; in assay [3] it was 0.0507; in the assay with Hey (Ovarian Carcinoma) it was 0.113; in assay [4] it was 0.0713; in [5] it was -0.0491. The “combination Emax” value is 0.377 in [6]; 0.242 in assay [7]; 0.312 in the assay with EW-1 (Ewing's Sarcoma); 0.51 in assay [8]; 0.234 in [9]; 0.191 in assay [10]. The “combination Emax” value in assay [11] was found to be 0.58; in assay [12] it was 0.325; in assay [13] it was 0.182; in assay [14], 0.506; in assay [15], 0.355; in [16] it was 0.14. In addition, the “combination Emax” value in [17] was 0.293.
On to `Cc1cc2ncnn2cc1Nc1ncc2c(n1)n(C1CCOCC1)c(=O)n2C` [AZD7648] + CN(C)CCCOc1ccc(-c2ccc3ncc4c(c3c2)n(C2CCOCC2)c(=O)n4C)cn1 [AZD0156] (first compound max 10 µM, 7x7, partner max 1 µM), for which the Bliss excess in assay [1] was determined as 0.072; in [2], 0.0335; in assay [3], 0.0414; with Hey (Ovarian Carcinoma), 0.0367; in assay [4] it was 0.0351; in assay [5], 0.0203. Further, the “combination Emax” value in assay [6] worked out at 0.38; in [7], 0.225; in the assay on EW-1 (Ewing's Sarcoma), 0.34; in assay [8], 0.329; in [9] it was 0.221; in [10], 0.299. Further, the “combination Emax” value in [11] stood at 0.311; in [12], 0.221; in assay [13] it was 0.0818; in [14], 0.371; in [15], 0.253; in [16] it was 0.186. The “combination Emax” value in assay [17] stood at 0.27.
Regarding `Cc1cc2ncnn2cc1Nc1ncc2c(n1)n(C1CCOCC1)c(=O)n2C` [AZD7648] + COc1cc([C@@H]2c3cc4c(cc3[C@@H](O[C@@H]3O[C@@H]5CO[C@@H](C)O[C@H]5[C@H](O)[C@H]3O)[C@H]3COC(=O)[C@H]23)OCO4)cc(OC)c1O [Etoposide] (first compound max 10 µM, 7x7, partner max 10 µM), the “combination Emax” value in assay [18] amounted to 0.47.
Consider `Cc1cc2ncnn2cc1Nc1ncc2c(n1)n(C1CCOCC1)c(=O)n2C` [AZD7648] + C[C@@H]1COCCN1C2=NC(=NC(=C2)C3(CC3)[S@](=N)(=O)C)C4=C5C=CNC5=NC=C4 [AZD6738] (first compound max 10 µM, 7x7, partner max 10 µM), for which the Bliss excess was 0.0308 in assay [1]; -0.0143 in assay [2]; 0.0489 in assay [3]; 0.0229 in the assay with Hey (Ovarian Carcinoma); -0.0187 in assay [4]; -0.0062 in assay [5]. The “combination Emax” value in assay [6] was 0.824; in [7], 0.893; in the assay on EW-1 (Ewing's Sarcoma), 0.871; in assay [8], 0.379; in assay [9], 0.527; in assay [10] it was 0.87. Besides, the “combination Emax” value came to 0.891 in [11]; 0.827 in assay [12]; 0.302 in assay [13]; 0.612 in assay [14]; 0.949 in assay [15]; 0.138 in assay [16]. For the same molecule, the “combination Emax” value in assay [17] worked out at 0.443.
As to `COc1cc2c(cc1OCCCCCOc1cc3c(cc1OC)C(=O)N1C=C(C)C[C@H]1C=N3)N=C[C@@H]1CC(C)=CN1C2=O` [SG3199] + O=C(c1cc(Cc2n[nH]c(=O)c3ccccc23)ccc1F)N1CCN(C(=O)C2CC2)CC1 [Olaparib] (first compound max 0.001 µM, 7x7, partner max 10 µM), the Bliss excess in [1] was -0.0198; in assay [2], -0.0211; in assay [3], -0.0144; in the assay with Hey (Ovarian Carcinoma) it was -0.0086; in [4] it was -0.0265; in assay [5] it was -0.0795. Besides, the “combination Emax” value in assay [6] was found to be 0.325; in [7], 0; in the assay on EW-1 (Ewing's Sarcoma), 0.636; in assay [8] it was 0.32; in assay [9] it was 0.14; in [10] it was 0.389. In addition, the “combination Emax” value in assay [11] was found to be 0.719; in assay [12], 0.187; in assay [13], 0.152; in [14] it was 0.14; in [15] it was 0.21; in assay [16], 0.136. In assay [17], the “combination Emax” value turned out to be 0.0893.
Turning to `N#Cc1cnc(Nc2cc(NC[C@H]3CNCCO3)c(C(F)(F)F)cn2)cn1` [SRA737] + C=CCn1c(=O)c2cnc(Nc3ccc(N4CCN(C)CC4)cc3)nc2n1-c1cccc(C(C)(C)O)n1 [AZD1775] (first compound max 10 µM, partner max 1 µM), the “combination Emax” value in assay [18] amounted to 0.442.
On the same count and under the same terms, under `N#Cc1cnc(Nc2cc(NC[C@H]3CNCCO3)c(C(F)(F)F)cn2)cn1` [SRA737] + CCc1c2c(nc3ccc(O)cc13)-c1cc3c(c(=O)n1C2)COC(=O)[C@]3(O)CC [SN-38] (first compound max 10 µM, 7x7, partner max 0.3 µM) stands 0.639; under `N#Cc1cnc(Nc2cc(NC[C@H]3CNCCO3)c(C(F)(F)F)cn2)cn1` [SRA737] + Nc1ccn([C@@H]2O[C@H](CO)[C@@H](O)C2(F)F)c(=O)n1 [Gemcitabine] (first compound max 10 µM, 7x7, partner max 0.3 µM), 0.389.
On the same count and under the same terms, under `N#Cc1cnc(Nc2cc(NC[C@H]3CNCCO3)c(C(F)(F)F)cn2)cn1` [SRA737] + O=c1[nH]cc(F)c(=O)[nH]1 [5-Fluorouracil] (first compound max 10 µM, 7x7, partner max 20 µM) stands 0.369.
